Source: patent US11690837B2, “Methods of improving cell-based therapy” (THE REGENTS OF THE UNIVERSITY OF CALIFORNIA, priority 2014, dated 2023)

Tests used:
sEH = molecular target: T1, sEH (Homo sapiens, UniProt P34913); assay: Testing as sEH inhibitors (method not described); format: biochemical
T1 sequence (P34913 1-555): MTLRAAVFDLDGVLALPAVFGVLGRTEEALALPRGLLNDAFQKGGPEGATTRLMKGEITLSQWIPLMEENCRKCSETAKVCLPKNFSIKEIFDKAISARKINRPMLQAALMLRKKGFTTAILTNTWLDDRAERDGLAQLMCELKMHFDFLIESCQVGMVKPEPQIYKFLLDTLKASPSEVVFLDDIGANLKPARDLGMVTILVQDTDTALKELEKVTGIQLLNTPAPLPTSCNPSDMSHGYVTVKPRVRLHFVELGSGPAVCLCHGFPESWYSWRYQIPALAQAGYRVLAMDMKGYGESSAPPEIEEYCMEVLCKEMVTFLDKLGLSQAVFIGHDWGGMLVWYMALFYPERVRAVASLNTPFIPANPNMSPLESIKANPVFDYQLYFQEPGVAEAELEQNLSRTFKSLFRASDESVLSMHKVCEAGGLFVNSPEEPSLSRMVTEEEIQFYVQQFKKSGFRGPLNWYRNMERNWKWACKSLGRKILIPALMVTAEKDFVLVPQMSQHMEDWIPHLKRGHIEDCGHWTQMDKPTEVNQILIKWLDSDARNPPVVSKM
Excerpt: (§1) (Both the 1- and the 2-admamantyl ureas have been tested and have about the same high activity as an inhibitor of sEH. Thus, isomers of adamantyl dodecyl urea are preferred inhibitors. It is further expected that N, N′-dodecyl-cyclohexyl urea (DCU), and other inhibitors of sEH, and particularly dodecanoic acid ester derivatives of urea, are suitable for use in the methods. Preferred inhibitors include:
U.S. Pat. No. 5,955,496 (the '496 patent) also sets forth a number of sEH inhibitors which can be used in the methods. One category of these inhibitors comprises inhibitors that mimic the substrate for the enzyme. The lipid alkoxides (e.g., the 9-methoxide of stearic acid) are an exemplar of this group of inhibitors.

[1] = format: in vitro ADME
Excerpt: as §1, with “include: […]” for “include:”

CCCCCCCCCCCCNC(=O)NC12CC3CC(CC(C3)C1)C2 [ADU, N-Adamantyl-N′-dodecyl urea]
activity as an inhibitor of sEH (sEH): particularly high activity | metabolic stability [1]: metabolically stable
